Data published in patent US20110039946A1, “METHOD OF IMPROVING ATOPIC DERMATOLOGICAL DISEASES, IN WHICH A COMPOSITION COMPRISING MAGNOLOL, HONOKIOL OR A COMBINATION THEREOF IS ADMINISTERED TO A PATIENT WITH ATOPIC DERMATOLOGICAL DISEASES” (BIOSPECTRUM, INC., priority 2007, published 2011).
Where two headings read alike, the source gives them in different places.

Columns and labels:
Staphylococcus aureus [1] = test: filter-paper disk agar diffusion (Kirby-Bauer) antibacterial activity; format: cell-based; conditions: S. aureus; for Diameter of clear zone: filter disk 10 mm
Protocol: The standardized filter-paper disk agar diffusion method was used to determine the antibacterial activity of magnolol and honokiol against Staphylococcus aureus. This method was also well-known as Kirby-Bauer method, and has been widely used to determine the antibacterial activity (see, European Journal of Pharmacology, Junho Park et al, 2004, 496(1-3), 189-195). Briefly, Staphylococcus aureus cells were incubated with brain heart infusion (BHI) broth at 37° C. under anaerobic conditions until they reach the stationary phase. Approximately 1×10^6 bacteria cells were mixed with 7 ml of BHI agar medium containing 0.8% phytoagar and then, poured on the agar plate containing 1.5% phytoagar. The filter-paper discs (10 mm diameter) were treated with magnolol and honokiol at respective test concentrations, and then placed on the BHI agar plate inoculated with the test bacteria. The plate was incubated at 37° C. for 24 hours under anaerobic conditions, and then the antibacterial activity was determined by measuring the size of clear zone (growth inhibition halo) around the disk. The size of clear zone has the functional relation with the logarithmic value of magnolol or honokiol concentration, from which the standard calibration curve could be derived (FIG. 1). The unknown concentration of the test sample can be determined from this standard calibration curve. […] The antibacterial activity was remarkable at 6.25 μg/disk (0.39 mM) for honokiol and 12.5 μg/disk (0.78 mM) for magnolol (Table 1).

Staphylococcus aureus [2] = test: Minimum Inhibitory Concentration, two-fold serial dilution; format: cell-based; conditions: 24 h, read-out: MIC of agents
Protocol: The test was conducted to determine the Minimum Inhibitory Concentrations (MIC) of magnolol and honokiol. Staphylococcus aureus incubated for 24 hours was introduced into 3 ml of brain heart infusion broth, and at the same time, magnolol and honokiol were respectively added thereto, and then incubated for 24 hours at 37° C. under anaerobic conditions. To determine MICs of honokiol and magnolol the two-fold serial dilution method was used. As used herein, MIC is defined as the minimum concentration at which the growth of microorganism is inhibited. As presented in Table 2, it could be confirmed that MICs of magnolol and honokiol for Staphylococcus aureus were 6 μg/ml and 2 μg/ml, respectively. That is, it can be seen that the antibacterial activity of honokiol is higher than that of magnolol.

Staphylococcus aureus [3] = test: Minimum Bacteriocidal Concentration / kinetics of bacterial killing; format: cell-based
Protocol: The inhibition of bacterial growth with a certain substance is the result obtained by inhibiting the proliferation of respective cells or killing the cells. […] The following experiment was conducted to determine the Minimum Bacteriocidal Concentration (MBC). First, the same procedures as the determination of MIC were conducted in the liquid culture medium, and then a portion of the culture medium in the test tube in which no proliferation was shown was taken, diluted to remove magnolol and honokiol therefrom, and then incubated on the solid culture medium and observed for the colony formation after 24 hours. At this time, MBC means the minimum value of magnolol or honokiol concentration in the original culture solution in the plate medium on which no colony was produced. To determine MBC of magnolol and honokiol Staphylococcus aureus was used, and magnolol or honokiol was applied at the concentration one, five and 10 times as high as MIC concentration thereof to determine the kinetics of bacterial killing. The survival rate of microbes was determined within 2 hours.

interleukin-8 = interleukin-8 production induced by heat-inactivated Staphylococcus aureus in THP-1 cells (ELISA); format: cell-based, human; conditions: heat-inactivated S. aureus 100 μg/ml, 48 hours
Protocol: In general, the inflammatory response generated by bacteria or bacterial components is mediated by proinflammatory cytokines. To determine whether magnolol or honokiol can inhibit the inflammatory response generated by Staphylococcus aureus ELISA for interleukin-8 and TNF-alpha was conducted. For this purpose, THP-1 cell line as human monocyte cell line was used. 1×10^6 THP-1 cells were incubated for 14 hours under serum-free conditions, and then treated with heat-inactivated Staphylococcus aureus 100 μg/ml alone or simultaneously with magnolol and honokiol, respectively, which was then incubated for 48 hours. The amounts of interleukin-8 and TNF-alpha secreted into cell culture medium were measured by means of ELISA kit (Genzyme, Minneapolis, Minn.).

TNF-alpha = TNF-alpha production induced by heat-inactivated Staphylococcus aureus in THP-1 cells (ELISA); format: cell-based, human; conditions: heat-inactivated S. aureus 100 μg/ml, 48 hours
Protocol: In addition, the experiment was conducted to identify the synergistic anti-inflammatory effect when magnolol and honokiol are combined in a certain ratio. The efficacy to inhibit the production of TNF-alpha was examined in cases where the combined ratio of magnolol and honokiol is 1 (7.5 μM):1 (7.5 μM), 1 (5 μM):2 (10 μM), and 2(10 μM):1 (5 μM) or in case of treating with 15 μM of magnolol alone or 15 μM of honokiol alone.

[4] = system: patients suffering from mild or moderate atopic dermatitis; test: clinical evaluation of skin topical preparations in atopic dermatitis (EASI, pruritus); format: in vivo, human; conditions: applied as 1% cream; 2 and 4 weeks
Protocol: The cosmetic compositions for atopy containing magnolol, honokiol and pimecrolimus, respectively were prepared with the contents of components as listed in the following Table 3, according to the conventional method. In the following Table 3, the control group is for the skin topical preparation with no antibacterial and anti-inflammatory substance, and the test groups 1, 2 and 3 are for the cosmetic compositions for skin topical use to treat atopy containing magnolol, honokiol and pimecrolimus, respectively.
To prepare the skin topical preparation purified water, glycerin and butylene glycol were mixed and dissolved at 70° C. (aqueous part), and the remaining components except for the three components and trimethanolamine were dissolved at 70° C. (oil part). The oil part was added to the aqueous part and stirred with a homomixer (from Tokushu Kika Kogyo, Co., Ltd. In Japan) to induce the first emulsification to which trimethanolamine was finally added. […]
1) The symptoms and extent of atopic dermatitis were objectively determined using EASI (Eczema Area Severity Index) as follows, before treatment and 2 and 4 weeks after treatment. […]
EASI score and pruritus score were compared and evaluated by applying Kruskall-Wallis one-way ANOVA method as the basic statistical method before treatment and 2 and 4 weeks after treatment. […]

SMILES	amount at which the antibacterial activity was remarkable (Staphylococcus aureus [1]; disk diffusion)	concentration at which the antibacterial activity was remarkable (Staphylococcus aureus [1]; disk diffusion, printed in brackets after μg/disk)	Diameter of clear zone (Staphylococcus aureus [1]; 12.5 mg/disk (footnote a))	Diameter of clear zone (Staphylococcus aureus [1]; 25 mg/disk (footnote a))	Diameter of clear zone (Staphylococcus aureus [1]; 50 mg/disk (footnote a))	MIC (Staphylococcus aureus [2])	concentration at which Staphylococcus aureus was completely exterminated within 10 minutes (Staphylococcus aureus [3])	concentration at which Staphylococcus aureus was completely exterminated within 10 minutes (Staphylococcus aureus [3]; printed in brackets after μg/ml)	production of interleukin-8 induced by Staphylococcus aureus (interleukin-8)	production of TNF-alpha induced by Staphylococcus aureus (TNF-alpha)	pruritus accompanied by atopic dermatitis (visual analog scale) [4]	Diameter of clear zone (Staphylococcus aureus [1]; 6.25 mg/disk (footnote a))
C=CCc1ccc(O)c(-c2cc(CC=C)ccc2O)c1 [Magnolol, 5,5′-di-2-propenyl-1,1′-biphenyl-2,2′-diol]	12.5 μg/disk	0.78 mM	11 ± 0.4^c mm	15 ± 0.2^c mm	18 ± 0.2^c mm	6 µg/mL	45 µg/mL	169.2 µM	reduced	reduced	significantly improved	
CC[C@H]1OC(=O)[C@H](C)[C@@H](O[C@H]2C[C@@](C)(OC)[C@@H](O)[C@H](C)O2)[C@H](C)[C@@H](O[C@@H]2O[C@H](C)C[C@H](N(C)C)[C@H]2O)[C@](C)(O)C[C@@H](C)C(=O)[C@H](C)[C@@H](O)[C@]1(C)O [Erythromycin, reference compound]			42 ± 3.8^c mm	45 ± 2.5^c mm	48 ± 5^c mm							35 ± 2.2^c mm
